{"source": "patent US10500166B2", "about": "“Methods for the treatment of erectile dysfunction using fispemifene” (QUATRX PHARMACEUTICALS, priority 2007, dated 2019)", "test_system": "total testosterone", "assay": "Example 3 study in hypogonadal men: morning serum total testosterone (ITT)", "type": "in vivo, human", "method": "A randomized, double-blind, placebo controlled, parallel-group study of once-daily doses of fispemifene (100, 200, and 300 mg/day) given for 4 weeks was conducted in a population of hypogonadal men. Subjects were required to meet all of the following inclusion criteria at screening and prior to randomization to be eligible for the study:\nThere were 77 subjects total. The number of subjects randomized to the 100 mg fispemifene, 200 mg fispemifene, 300 mg fispemifene, and placebo arms were 21, 21, 19, and 16, respectively.\nSubjects were randomly assigned to one of four treatment groups in a 1:1:1:1 ratio: • Treatment A (100 mg): fispemifene 100 mg+placebo+placebo; • Treatment B (200 mg): fispemifene 100 mg+fispemifene 100 mg+placebo; • Treatment C (300 mg): fispemifene 100 mg+fispemifene 100 mg+fispemifene 100 mg; and • Treatment D (Placebo): placebo+placebo+placebo.\nSubjects took one dose (three capsules) of study medication once a day at home for 4 weeks. Capsules were to be taken in the morning immediately after breakfast, with the exception of the morning of the Week 4 visit. Capsules were not to be taken on the morning of the Week 4 visit because trough plasma levels of fispemifene were determined by a blood sample taken at this visit. Each subject was randomly assigned to treatment with one of the 3 different dose regimens of fispemifene or placebo vehicle. Each subject received a 4 week supply of study drug.\nBlood samples were taken from the subjects within 1 week prior to dosing with study drug to establish baseline values; after 2 and 4 weeks of randomization; and 2 weeks after the last dose of study drug. Serum was prepared from those samples and used to determine the mean % change from baseline in total testosterone, free testosterone, SHBG (sex hormone-binding globulin), DHT (dihydrotestosterone), E2 (estradiol), LH (luteinizing hormone), FSH (follicle stimulating hormone), and inhibin B.\nThe primary efficacy endpoint was defined as percent change from baseline in morning total testosterone levels at Week 4. The intent-to-treat (“ITT”) population was the primary population for analysis. The secondary efficacy endpoints included:\n2. Percent change from baseline in total testosterone levels at Weeks 2 and 6; and […]", "key": {"[1]": {"conditions": "100 mg/day, Week 6 (2 weeks after discontinuation)"}, "[2]": {"conditions": "100 mg/day, to Week 6 (2 weeks after discontinuation)"}, "[3]": {"conditions": "200 mg/day, Week 6 (2 weeks after discontinuation)"}, "[4]": {"conditions": "200 mg/day, to Week 6 (2 weeks after discontinuation)"}}, "data": [{"smiles": "OCCOCCOc1ccc(/C(=C(/CCCl)c2ccccc2)c2ccccc2)cc1", "note": "[Fispemifene, (Z)-2-{2-[4-(4-Chloro-1,2-diphenylbut-1-enyl)phenoxy]ethoxy}ethanol]", "values": [{"measurement": "Total Testosterone, Max", "setting": "100 mg/day, Baseline (Visit 2)", "result": 347.0, "unit": "ng/dL"}, {"measurement": "Total Testosterone, Mean ± SD", "setting": "100 mg/day, Baseline (Visit 2)", "result": "248.6 ± 68.90", "unit": "ng/dL"}, {"measurement": "Total Testosterone, Median", "setting": "100 mg/day, Baseline (Visit 2)", "result": 266.0, "unit": "ng/dL"}, {"measurement": "Total Testosterone, Min", "setting": "100 mg/day, Baseline (Visit 2)", "result": 101.0, "unit": "ng/dL"}, {"measurement": "Total Testosterone, Max", "setting": "100 mg/day, Week 2", "result": 585.0, "unit": "ng/dL"}, {"measurement": "Total Testosterone, Mean ± SD", "setting": "100 mg/day, Week 2", "result": "369.9 ± 88.23", "unit": "ng/dL"}, {"measurement": "Total Testosterone, Median", "setting": "100 mg/day, Week 2", "result": 350.0, "unit": "ng/dL"}, {"measurement": "Total Testosterone, Min", "setting": "100 mg/day, Week 2", "result": 235.0, "unit": "ng/dL"}, {"measurement": "Total Testosterone, Max", "setting": "100 mg/day, Week 4", "result": 535.0, "unit": "ng/dL"}, {"measurement": "Total Testosterone, Mean ± SD", "setting": "100 mg/day, Week 4", "result": "371.6 ± 83.36", "unit": "ng/dL"}, {"measurement": "Total Testosterone, Median", "setting": "100 mg/day, Week 4", "result": 353.0, "unit": "ng/dL"}, {"measurement": "Total Testosterone, Min", "setting": "100 mg/day, Week 4", "result": 246.0, "unit": "ng/dL"}, {"measurement": "Total Testosterone, Max", "setting": "[1]", "result": 414.0, "unit": "ng/dL"}, {"measurement": "Total Testosterone, Mean ± SD", "setting": "[1]", "result": "271.9 ± 69.21", "unit": "ng/dL"}, {"measurement": "Total Testosterone, Median", "setting": "[1]", "result": 265.0, "unit": "ng/dL"}, {"measurement": "Total Testosterone, Min", "setting": "[1]", "result": 121.0, "unit": "ng/dL"}, {"measurement": "Total Testosterone, % Change from Baseline, Max", "setting": "100 mg/day, to Week 2", "result": 133, "unit": "%"}, {"measurement": "Total Testosterone, % Change from Baseline, Median", "setting": "100 mg/day, to Week 2", "result": 45, "unit": "%"}, {"measurement": "Total Testosterone, % Change from Baseline, Min", "setting": "100 mg/day, to Week 2", "result": 14, "unit": "%"}, {"measurement": "Total Testosterone, % Change from Baseline, Max", "setting": "100 mg/day, to Week 4", "result": 198, "unit": "%"}, {"measurement": "Total Testosterone, % Change from Baseline, Median", "setting": "100 mg/day, to Week 4", "result": 35, "unit": "%"}, {"measurement": "Total Testosterone, % Change from Baseline, Min", "setting": "100 mg/day, to Week 4", "result": 7, "unit": "%"}, {"measurement": "Total Testosterone, % Change from Baseline, Max", "setting": "[2]", "result": 119, "unit": "%"}, {"measurement": "Total Testosterone, % Change from Baseline, Median", "setting": "[2]", "result": 11, "unit": "%"}, {"measurement": "Total Testosterone, Max", "setting": "200 mg/day, Baseline (Visit 2)", "result": 334.0, "unit": "ng/dL"}, {"measurement": "Total Testosterone, Mean ± SD", "setting": "200 mg/day, Baseline (Visit 2)", "result": "249.1 ± 60.90", "unit": "ng/dL"}, {"measurement": "Total Testosterone, Median", "setting": "200 mg/day, Baseline (Visit 2)", "result": 253.0, "unit": "ng/dL"}, {"measurement": "Total Testosterone, Min", "setting": "200 mg/day, Baseline (Visit 2)", "result": 133.0, "unit": "ng/dL"}, {"measurement": "Total Testosterone, Max", "setting": "200 mg/day, Week 2", "result": 497.0, "unit": "ng/dL"}, {"measurement": "Total Testosterone, Mean ± SD", "setting": "200 mg/day, Week 2", "result": "370.0 ± 72.44", "unit": "ng/dL"}, {"measurement": "Total Testosterone, Median", "setting": "200 mg/day, Week 2", "result": 354.0, "unit": "ng/dL"}, {"measurement": "Total Testosterone, Min", "setting": "200 mg/day, Week 2", "result": 238.0, "unit": "ng/dL"}, {"measurement": "Total Testosterone, Max", "setting": "200 mg/day, Week 4", "result": 626.0, "unit": "ng/dL"}, {"measurement": "Total Testosterone, Mean ± SD", "setting": "200 mg/day, Week 4", "result": "387.3 ± 107.39", "unit": "ng/dL"}, {"measurement": "Total Testosterone, Median", "setting": "200 mg/day, Week 4", "result": 372.0, "unit": "ng/dL"}, {"measurement": "Total Testosterone, Min", "setting": "200 mg/day, Week 4", "result": 241.0, "unit": "ng/dL"}, {"measurement": "Total Testosterone, Max", "setting": "[3]", "result": 539.0, "unit": "ng/dL"}, {"measurement": "Total Testosterone, Mean ± SD", "setting": "[3]", "result": "276.2 ± 97.28", "unit": "ng/dL"}, {"measurement": "Total Testosterone, Median", "setting": "[3]", "result": 240.0, "unit": "ng/dL"}, {"measurement": "Total Testosterone, Min", "setting": "[3]", "result": 162.0, "unit": "ng/dL"}, {"measurement": "Total Testosterone, % Change from Baseline, Max", "setting": "200 mg/day, to Week 2", "result": 142, "unit": "%"}, {"measurement": "Total Testosterone, % Change from Baseline, Median", "setting": "200 mg/day, to Week 2", "result": 48, "unit": "%"}, {"measurement": "Total Testosterone, % Change from Baseline, Min", "setting": "200 mg/day, to Week 2", "result": 17, "unit": "%"}, {"measurement": "Total Testosterone, % Change from Baseline, Median", "setting": "200 mg/day, to Week 4", "result": 60, "unit": "%"}, {"measurement": "Total Testosterone, % Change from Baseline, Max", "setting": "[4]", "result": 79, "unit": "%"}, {"measurement": "Total Testosterone, % Change from Baseline, Median", "setting": "[4]", "result": 11, "unit": "%"}, {"measurement": "Total Testosterone, Max", "setting": "300 mg/day, Baseline (Visit 2)", "result": 348.0, "unit": "ng/dL"}, {"measurement": "Total Testosterone, Mean ± SD", "setting": "300 mg/day, Baseline (Visit 2)", "result": "234.2 ± 77.69", "unit": "ng/dL"}, {"measurement": "Total Testosterone, Median", "setting": "300 mg/day, Baseline (Visit 2)", "result": 246.0, "unit": "ng/dL"}, {"measurement": "Total Testosterone, Min", "setting": "300 mg/day, Baseline (Visit 2)", "result": 17.0, "unit": "ng/dL"}, {"measurement": "Total Testosterone, Max", "setting": "300 mg/day, Week 2", "result": 526.0, "unit": "ng/dL"}, {"measurement": "Total Testosterone, Mean ± SD", "setting": "300 mg/day, Week 2", "result": "379.2 ± 122.04", "unit": "ng/dL"}, {"measurement": "Total Testosterone, Median", "setting": "300 mg/day, Week 2", "result": 427.0, "unit": "ng/dL"}, {"measurement": "Total Testosterone, Min", "setting": "300 mg/day, Week 2", "result": 13.0, "unit": "ng/dL"}, {"measurement": "Total Testosterone, Max", "setting": "300 mg/day, Week 4", "result": 643.0, "unit": "ng/dL"}, {"measurement": "Total Testosterone, Mean ± SD", "setting": "300 mg/day, Week 4", "result": "430.7 ± 163.39", "unit": "ng/dL"}, {"measurement": "Total Testosterone, Median", "setting": "300 mg/day, Week 4", "result": 479.0, "unit": "ng/dL"}, {"measurement": "Total Testosterone, Min", "setting": "300 mg/day, Week 4", "result": 8.0, "unit": "ng/dL"}]}]}
